Measured values as given in patent US12661365B2, “Use of cannabidiol in the treatment of epilepsy” (priority 2020, dated 2026).

What was measured:
[1] = Phase 1 open-label drug-drug interaction trial: effect of repeated-dose CBD on the pharmacokinetics of a single dose of caffeine (plasma caffeine and paraxanthine, LC-MS/MS); assay type: in vivo, human; conditions: trough samples Days 23, 25 and 26, 750 mg CBD b.i.d., before coadministration on Day 26
Source text: The duration of the trial was approximately 10 weeks, which includes a screening period (up to 4 weeks), a treatment period (4 weeks) and a safety follow-up period (2 weeks). After signing the informed consent form (ICF), participants entered the screening period (Day −28 to −1). […] The subjects were resident in the CRU for 2 periods. […] They were discharged on Day 3 after completion of the assessments. On Day 3, the first dose of CBD was taken in the morning in the CRU, and on this day, the escalating doses of CBD were dispensed to subjects to be taken at home from Day 4 to Day 12. After discharge on Day 3, the subjects returned to the CRU for ambulatory visits on Days 12, 18, and 23. At these ambulatory visits, the maintenance doses of CBD were dispensed to subjects to be taken at home from Day 13 to Day 25 (the evening dose of Day 25 was taken in the CRU). The subjects were admitted again to the CRU in the afternoon of Day 25. […] The subjects were discharged on Day 28 after completion of the assessments. […]
Plasma concentration of CBD determined on the following days: 23, 25, and 26. These were determined using liquid chromatography and tandem mass spectrometry. […]

serum ALT = test: Liver safety in the Phase 1 trial: serum liver chemistries (peak ALT versus ULN); assay type: in vivo, human
Source text: Clinical laboratory measurements of liver injury and function, the Upper Limit of Normal (ULN) values used are: 68 international units [IU]/L for ALT, 45 IU/L for aspartate aminotransferase (AST), 129 IU/L for alkaline phosphatase (ALP), 29 μmol/L for total bilirubin (TBL), and 59 IU/L for gamma-glutamyl transferase (GGT).
Drug induced liver injury (DILI) is when serum ALT exceeds 5×ULN.
In the above-outlined Phase 1 trial, abnormal liver chemistries were found for the subjects. This was unexpected as subjects were healthy adults receiving therapeutic equivalent doses of CBD used to treat Dravet Syndrome and Lennox-Gastaut Syndrome (1500 mg/day).
Measurements were performed at screening, on trial Days −1, 12, 18, 23, 27, and at follow-up.

[2] = healthy adults, CBD 1500 mg/day
[3] = healthy adults, CBD 1500 mg/day, 16 participants, ALT ULN 68 IU/L

C=C(C)[C@@H]1CCC(C)=C[C@H]1c1c(O)cc(CCCCC)cc1O [CBD, Cannabidiol]
trough plasma levels of CBD [1]: reached steady state | rate of abnormal liver chemistries in healthy volunteers (serum ALT; CBD at the doses used in this study): 44% | exposure time at which all ALT elevations occurred (serum ALT; exposure to cannabidiol): 2-4 weeks | participants with peak ALT >5×ULN (international consensus criteria for DILI) (serum ALT; [2]): 5 (31%) participants | participants with peak serum ALT >2×ULN (serum ALT; [2]): 6 (38%) participants | participants with peak serum ALT ≥2 × ULN (serum ALT; [3]): 6 (38%) | participants with peak serum ALT ≥3 × ULN (serum ALT; [3]): 5 (31%) | participants with peak serum ALT ≥5 × ULN (serum ALT; [3]): 5 (31%) | participants with peak serum ALT ≥10 × ULN (serum ALT; [3]): 0 (0) | participants with peak serum ALT ≥20 × ULN (serum ALT; [3]): 0 (0) | participants with peak serum ALT >ULN (serum ALT; healthy adults, CBD up to 750 mg b.i.d. (1500 mg/day), 16 participants, ALT ULN 68 IU/L): 7 (44%) | trial days between which all ALT elevations occurred (serum ALT; trial day): 18 to 27 days
